{"source": "patent US20140088187A1", "about": "“ANDROGEN RECEPTOR INHIBITORS AND METHODS OF USE THEREOF” (BETH ISRAEL DEACONESS MEDICAL CENTER, priority 2010, published 2014)", "format_in_all_cases": "cell-based", "key": {"wildtype AR": {"target": "T1, wildtype AR (Homo sapiens, UniProt P10275)", "T1 construct": "The AR WT construct expresses full-length human AR under cmv promoter control; expressed in transfected cells; host or cells: COS7", "T1 sequence (P10275 1-920)": "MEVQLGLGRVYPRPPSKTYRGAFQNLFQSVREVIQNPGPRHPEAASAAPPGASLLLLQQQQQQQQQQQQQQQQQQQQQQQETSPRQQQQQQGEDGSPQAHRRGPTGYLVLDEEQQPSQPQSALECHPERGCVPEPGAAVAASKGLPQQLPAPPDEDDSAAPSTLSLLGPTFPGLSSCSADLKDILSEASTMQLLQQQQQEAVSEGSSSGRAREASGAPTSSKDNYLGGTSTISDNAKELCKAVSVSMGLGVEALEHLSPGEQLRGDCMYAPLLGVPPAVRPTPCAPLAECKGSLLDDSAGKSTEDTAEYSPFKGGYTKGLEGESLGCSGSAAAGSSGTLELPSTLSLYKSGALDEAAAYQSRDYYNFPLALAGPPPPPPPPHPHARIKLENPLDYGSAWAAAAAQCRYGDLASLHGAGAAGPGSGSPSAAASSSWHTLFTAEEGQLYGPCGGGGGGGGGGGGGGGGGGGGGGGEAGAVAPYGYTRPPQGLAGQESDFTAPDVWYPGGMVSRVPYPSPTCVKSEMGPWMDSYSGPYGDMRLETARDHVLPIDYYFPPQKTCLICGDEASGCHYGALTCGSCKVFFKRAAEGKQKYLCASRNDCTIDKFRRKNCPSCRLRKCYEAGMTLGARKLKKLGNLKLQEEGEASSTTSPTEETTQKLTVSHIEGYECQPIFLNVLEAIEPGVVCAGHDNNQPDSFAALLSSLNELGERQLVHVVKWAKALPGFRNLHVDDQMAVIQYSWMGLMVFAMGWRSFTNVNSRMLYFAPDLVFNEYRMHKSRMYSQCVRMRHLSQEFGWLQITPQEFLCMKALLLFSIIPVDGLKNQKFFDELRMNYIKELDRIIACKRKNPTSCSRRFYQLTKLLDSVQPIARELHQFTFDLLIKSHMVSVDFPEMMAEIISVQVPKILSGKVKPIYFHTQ", "experiment": "AR-responsive firefly luciferase reporter assay in COS7 cells transfected with AR (DHT-stimulated AR activity)", "conditions": "relative to initial chemotype A compounds; data not shown", "from_the_text": "FIG. 13. Antagonist activity of generation 4 compounds at 25 micromolar. […] Reporter firefly luciferase is corrected for control Renilla activity.\nFIG. 14. Antagonist activity of generation 4 compounds at 1-10 micromolar. […] Reporter firefly luciferase is corrected for control Renilla activity. […]\nThe AR-responsive firefly luciferase reporter consists of 4 tandem repeats of the consensus steroid response element cloned upstream of the pGL3-Basic Luciferase vector (Promega). The AR WT construct expresses full-length human AR under cmv promoter control.\nLuciferase activity was determined using the Dual-Luciferase Reporter Assay System (Promega E1910)."}, "AR in VCaP cells": {"target": "T2, AR in VCaP cells (Homo sapiens, UniProt P10275)", "T2 construct": "endogenous in cells; host or cells: VCaP", "T2 sequence (P10275 1-920)": "T1 sequence (P10275 1-920)", "experiment": "Nuclear AR, total AR protein and PSA expression in VCaP cells in steroid depleted medium", "from_the_text": "VCaP cells, derived from a CRPC vertebral metastasis, express substantial levels of AR and AR regulated genes such as PSA even when cultured in steroid depleted medium. […] In additional studies focused on chemotype A compounds, we used immunofluorescence to assess AR nuclear localization. […] In contrast, and consistent with the biochemical fractionation studies noted above, basal nuclear AR was decreased by A61.\nWe used the NE-PER Nuclear and Cytoplasmic Extraction Reagents (Pierce 78833)."}, "[1]": {"target": "T3, wild-type AR in PC3-AR cells (Homo sapiens, UniProt P10275)", "T3 construct": "expressed in transfected cells", "T3 sequence (P10275 1-920)": "T1 sequence (P10275 1-920)", "experiment": "AR protein levels and degradation (cycloheximide) in PC3-AR cells", "method": "As LNCaP and C4-2 cells express the T877A mutant AR, we next examined PC3-AR cells expressing wildtype AR. As observed in C4-2 cells, A89 caused a decrease in AR protein levels (FIG. 10d). To further validate that this was due to increased AR protein degradation, we pretreated these cells with A89 for 2 hours and then blocked new protein synthesis with cycloheximide (CHX). […] We finally examined VCaP cells."}, "[2]": {"target": "T4, AR ΔH12 (M886X variant AR) (Homo sapiens, UniProt P10275)", "T4 construct": "expressed in transfected cells; host or cells: COS7", "T4 sequence (P10275 1-886 limits assumed)": "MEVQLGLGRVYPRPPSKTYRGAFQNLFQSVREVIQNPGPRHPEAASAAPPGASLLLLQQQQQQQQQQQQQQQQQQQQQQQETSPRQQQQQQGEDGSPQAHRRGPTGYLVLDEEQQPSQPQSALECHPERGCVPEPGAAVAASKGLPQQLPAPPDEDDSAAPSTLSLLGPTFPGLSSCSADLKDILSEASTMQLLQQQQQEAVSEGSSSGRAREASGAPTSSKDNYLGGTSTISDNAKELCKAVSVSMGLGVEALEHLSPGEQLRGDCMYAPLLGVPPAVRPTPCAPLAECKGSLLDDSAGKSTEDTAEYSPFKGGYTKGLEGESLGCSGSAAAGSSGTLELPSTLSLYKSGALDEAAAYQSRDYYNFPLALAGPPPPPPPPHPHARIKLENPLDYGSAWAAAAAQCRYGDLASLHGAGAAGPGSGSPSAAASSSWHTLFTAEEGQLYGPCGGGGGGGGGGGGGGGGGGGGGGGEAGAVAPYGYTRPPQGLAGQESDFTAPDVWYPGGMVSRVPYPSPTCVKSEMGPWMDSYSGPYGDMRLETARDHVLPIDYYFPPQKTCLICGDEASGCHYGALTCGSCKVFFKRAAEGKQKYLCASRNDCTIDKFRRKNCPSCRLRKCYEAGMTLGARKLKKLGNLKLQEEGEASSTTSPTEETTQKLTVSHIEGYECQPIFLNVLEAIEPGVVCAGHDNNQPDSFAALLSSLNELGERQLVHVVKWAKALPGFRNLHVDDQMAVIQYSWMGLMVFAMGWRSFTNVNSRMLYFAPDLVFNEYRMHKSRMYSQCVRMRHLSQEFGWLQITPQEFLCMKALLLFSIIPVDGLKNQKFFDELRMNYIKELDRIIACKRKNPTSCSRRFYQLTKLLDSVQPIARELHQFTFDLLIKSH", "experiment": "Mifepristone-stimulated VP16-NCoRc recruitment reporter assay in COS7 cells, AR ΔH12", "from_the_text": "The ERα antagonist fulvestrant (Faslodex) represents a novel class of estrogen receptor downregulators that appear to mediate ERα degradation by specifically repositioning helix 12. To assess the role of helix 12 in chemotype A-mediated AR degradation, we first determined if helix 12 is required for A89 binding. As this helix is required for AR agonist activity, we could not directly measure competitive antagonist activity on a truncated AR lacking helix 12."}, "AR WT": {"target": "T5, AR WT (Homo sapiens, UniProt P10275)", "T5 construct": "The AR WT construct expresses full-length human AR under cmv promoter control; expressed in transfected cells; host or cells: COS7", "T5 sequence (P10275 1-920)": "T1 sequence (P10275 1-920)", "experiment": "AR expression levels in transiently transfected COS7 cells, AR WT", "conditions": "24 hours"}}, "note": "Entries after “also recorded” stand apart in the source; their conditions may differ."}
{"smiles": "CCOc1cc(F)c(S(=O)(=O)NCc2ccc3c(c2)OCO3)cc1F", "note": "[Compound A89, N-(1,3-benzodioxol-5-ylmethyl)-4-ethoxy-2,5-difluorobenzenesulfonamide]", "values": [{"measurement": "potency in antagonizing AR activity in luciferase reporter assays", "setting": "wildtype AR", "result": "increased potency; also recorded: relatively higher potency"}, {"measurement": "basal level PSA expression", "setting": "AR in VCaP cells; 10 μM, steroid depleted medium", "result": "further decreasing basal level PSA expression"}, {"measurement": "nuclear AR", "setting": "AR in VCaP cells; 10 μM, steroid depleted medium", "result": "significantly decreased nuclear AR"}, {"measurement": "DHT stimulated PSA expression", "setting": "AR in VCaP cells; not shown", "result": "blocking DHT stimulated PSA expression"}, {"measurement": "time within which AR protein decreased", "setting": "[1]; A89 10 μM, PC3-AR cells", "result": "≤ 4", "unit": "h"}, {"measurement": "time within which total AR protein dramatically decreased after cycloheximide (CHX)", "setting": "[1]; A89 treated PC3-AR cells plus CHX", "result": "≤ 1", "unit": "h"}, {"measurement": "AR protein levels", "setting": "[1]; PC3-AR cells expressing wildtype AR", "result": "decrease"}, {"measurement": "AR protein levels after cycloheximide", "setting": "[1]; PC3-AR cells pretreated with A89 for 2 hours, then 1 hour CHX, versus CHX alone", "result": "declined markedly"}, {"measurement": "mifepristone-mediated VP16-NCoRc recruitment", "setting": "[2]; A89 50 μM with Mif 100 nM", "result": "suppressed"}, {"measurement": "VP16-NCoRc recruitment (interaction with AR)", "setting": "[2]; Mif 100 nM, A89 50 μM, 24 hours", "result": "did not stimulate"}, {"measurement": "AR WT protein levels", "setting": "AR WT", "result": "decreased in a dose dependent manner"}]}
